Data: article PMC7419507, “In vitro Cas9-assisted editing of modular polyketide synthase genes to produce desired natural product derivatives” (Nature Communications, 2020)
Where “and” joins values, the source holds several entries; their conditions need not be identical. Identical values can stand only once.

Key:
T lymphoma Jurkat cells = assay: Cytotoxicity assay (CellTiter-Glo, 72 h), Jurkat; assay type: cell-based; conditions: raw data (replicates)
Experimental: (§1) Jurkat cells were cultured in RPMI1640 medium supplemented with 10% foetal bovine serum, penicillin (50 U/ml), streptomycin (50 μg/ml), and Glutamax. SKOV-3 cells were cultured in DMEM medium supplemented with 10% fetal bovine serum, penicillin (50 U/ml), and streptomycin (50 μg/ml). MESO-1 cells were cultured in RPMI1640 medium supplemented with 10% fetal bovine serum, penicillin (50 U/ml), and streptomycin (50 μg/ml). All cell lines were seeded in a 384-well plate at a density of 1000 cells/well in 20 μl of media and incubated at 37 °C in a humidified incubator with 5% CO2. After 4 h, 2-fold dilution samples resolved in DMSO were added to the cell culture at the concentration of 0.5% (0.1 μl) and incubated for 72 h. Cell viabilities were measured using a CellTiter-Glo luminescent cell viability assay and EnVision multilabel plate reader.

[1] = Cytotoxicity assay (CellTiter-Glo, 72 h), Jurkat; assay type: cell-based; conditions: human, Jurkat cells (T lymphoma); for viability at 72 h, 9.53674e-05 uM: conc 9.53674e-5 uM; for viability at 72 h, 9.53674e-05 uM / viability at 72 h, 0.000190735 uM / viability at 72 h, 0.00038147 uM / viability at 72 h, 0.000762939 uM / viability at 72 h, 0.00152588 uM / viability at 72 h, 0.00305176 uM / viability at 72 h, 0.00610352 uM / viability at 72 h, 0.012207 uM / viability at 72 h, 0.0244141 uM / viability at 72 h, 0.0488281 uM / viability at 72 h, 0.0976562 uM / viability at 72 h, 0.195312 uM / viability at 72 h, 0.390625 uM / viability at 72 h, 0.78125 uM / viability at 72 h, 1.5625 uM / viability at 72 h, 3.125 uM / viability at 72 h, 6.25 uM / viability at 72 h, 12.5 uM / viability at 72 h, 25 uM / viability at 72 h, 50 uM: raw data (replicates); for viability at 72 h, 0.000190735 uM: conc 0.000190735 uM; for viability at 72 h, 0.00038147 uM: conc 0.00038147 uM; for viability at 72 h, 0.000762939 uM: conc 0.000762939 uM; for viability at 72 h, 0.00152588 uM: conc 0.00152588 uM; for viability at 72 h, 0.00305176 uM: conc 0.00305176 uM; for viability at 72 h, 0.00610352 uM: conc 0.00610352 uM; for viability at 72 h, 0.012207 uM: conc 0.012207 uM; for viability at 72 h, 0.0244141 uM: conc 0.0244141 uM; for viability at 72 h, 0.0488281 uM: conc 0.0488281 uM; for viability at 72 h, 0.0976562 uM: conc 0.0976562 uM; for viability at 72 h, 0.195312 uM: conc 0.195312 uM; for viability at 72 h, 0.390625 uM: conc 0.390625 uM; for viability at 72 h, 0.78125 uM: conc 0.78125 uM; for viability at 72 h, 1.5625 uM: conc 1.5625 uM; for viability at 72 h, 3.125 uM: conc 3.125 uM; for viability at 72 h, 6.25 uM: conc 6.25 uM; for viability at 72 h, 12.5 uM: conc 12.5 uM; for viability at 72 h, 25 uM: conc 25 uM; for viability at 72 h, 50 uM: conc 50 uM
Experimental: as §1

SMILES	Jurkat viability (%) (T lymphoma Jurkat cells; conc 9.53674e-5 uM)	Jurkat viability (%) (T lymphoma Jurkat cells; conc 0.000190735 uM)	Jurkat viability (%) (T lymphoma Jurkat cells; conc 0.00038147 uM)	Jurkat viability (%) (T lymphoma Jurkat cells; conc 0.000762939 uM)	Jurkat viability (%) (T lymphoma Jurkat cells; conc 0.00152588 uM)	Jurkat viability (%) (T lymphoma Jurkat cells; conc 0.00305176 uM)	Jurkat viability (%) (T lymphoma Jurkat cells; conc 0.00610352 uM)	Jurkat viability (%) (T lymphoma Jurkat cells; conc 0.012207 uM)	Jurkat viability (%) (T lymphoma Jurkat cells; conc 0.0244141 uM)	Jurkat viability (%) (T lymphoma Jurkat cells; conc 0.0488281 uM)	Jurkat viability (%) (T lymphoma Jurkat cells; conc 0.0976562 uM)	Jurkat viability (%) (T lymphoma Jurkat cells; conc 0.195312 uM)	Jurkat viability (%) (T lymphoma Jurkat cells; conc 0.390625 uM)	Jurkat viability (%) (T lymphoma Jurkat cells; conc 0.78125 uM)	Jurkat viability (%) (T lymphoma Jurkat cells; conc 1.5625 uM)	Jurkat viability (%) (T lymphoma Jurkat cells; conc 3.125 uM)	Jurkat viability (%) (T lymphoma Jurkat cells; conc 6.25 uM)	Jurkat viability (%) (T lymphoma Jurkat cells; conc 12.5 uM)	Jurkat viability (%) (T lymphoma Jurkat cells; conc 25 uM)	viability at 72 h, 9.53674e-05 uM [1] [%]	further results
CO[C@H]1C[C@@H]2CC[C@@H](C)[C@@](O)(O2)C(=O)C(=O)N2CCCC[C@H]2C(=O)O[C@H]([C@H](C)C[C@@H]2CC[C@@H](O)[C@H](OC)C2)CC(=O)[C@H](C)/C=C(\C)[C@@H](O)[C@@H](OC)C(=O)[C@H](C)C[C@H](C)/C=C/C=C/C=C/1C [Compound 1, rapamycin, reference compound]	52.8% and 57.4%	35.2% and 40.4%	39.9% and 44.6%	31.7%	102.7% and 105.0%	37.4%	31.8% and 34.7%	28.7% and 28.4%	27.2% and 27.1%	23.4%	26.6% and 24.6%	24.1% and 25.5%	24.1% and 24.6%	24.2%	22.7% and 24.6%	21.8% and 23.2%	22.0% and 21.9%	19.2%	6.4% and 6.3%	51.5	Jurkat viability (%) (T lymphoma Jurkat cells; conc 50 uM): 0.5% and 0.178% and 0.2%; viability at 72 h ([1]; 72 h, read-out: Plateau level of cell viability in the dose-response curve): ~25%; viability at 72 h, 0.000190735 uM [1]: 40.1%; viability at 72 h, 0.00038147 uM [1]: 41%; viability at 72 h, 0.000762939 uM [1]: 32.5%; viability at 72 h, 0.00152588 uM [1]: 100%; viability at 72 h, 0.00305176 uM [1]: 41.9%; viability at 72 h, 0.00610352 uM [1]: 30.7%; viability at 72 h, 0.012207 uM [1]: 28.3%; viability at 72 h, 0.0244141 uM [1]: 25.3%; viability at 72 h, 0.0488281 uM [1]: 24.5%; viability at 72 h, 0.0976562 uM [1]: 24%; viability at 72 h, 0.195312 uM [1]: 24.4%; viability at 72 h, 0.390625 uM [1]: 23.8%; viability at 72 h, 0.78125 uM [1]: 23.7%; viability at 72 h, 1.5625 uM [1]: 23.8%; viability at 72 h, 3.125 uM [1]: 23.9%; viability at 72 h, 6.25 uM [1]: 20.6%; viability at 72 h, 12.5 uM [1]: 18.3%; viability at 72 h, 25 uM [1]: 7.7%
CO[C@H]1C[C@@H]2CC[C@@H](C)[C@@](O)(O2)C(=O)C(=O)N2CCCC[C@H]2C(=O)O[C@H]([C@H](C)C[C@@H]2CC[C@@H](O)[C@H](OC)C2)CC(=O)[C@H](C)/C=C(\C)[C@@H](O)CC(=O)[C@H](C)C[C@H](C)/C=C/C=C(C)/C=C/1C [Compound 2, 27-demethoxy-19-methyl rapamycin]	102.6% and 90.2%	99.7% and 100.1%	102.4% and 92.6%	99.9% and 100.9%	104.7% and 99.5%	96.2% and 98.5%	101.1%	91.7%	102.1%	95.8% and 99.2%	102.7% and 105.1%	95.3% and 96.4%	104.4%	92.4% and 89.9%	98.7%	91.9% and 84.9%	85.7% and 88.3%	78.8% and 80.3%	27.8% and 28.9%	101	viability at 72 h, 0.000190735 uM [1]: 101%; viability at 72 h, 0.00038147 uM [1]: 105%; viability at 72 h, 0.000762939 uM [1]: 110%; viability at 72 h, 0.00152588 uM [1]: 104%; viability at 72 h, 0.00305176 uM [1]: 96%; viability at 72 h, 0.00610352 uM [1]: 102%; viability at 72 h, 0.012207 uM [1]: 103%; viability at 72 h, 0.0244141 uM [1]: 98.4%; viability at 72 h, 0.0488281 uM [1]: 101%; viability at 72 h, 0.0976562 uM [1]: 98.8%; viability at 72 h, 0.195312 uM [1]: 97.6%; viability at 72 h, 0.390625 uM [1]: 103%; viability at 72 h, 0.78125 uM [1]: 95.4%; viability at 72 h, 1.5625 uM [1]: 97.9%; viability at 72 h, 3.125 uM [1]: 90.3%; viability at 72 h, 6.25 uM [1]: 93.3%; viability at 72 h, 12.5 uM [1]: 79.6%; viability at 72 h, 25 uM [1]: 26.4%; viability at 72 h, 50 uM [1]: 0.7%
CO[C@H]1C[C@@H]2CC[C@@H](C)[C@@](O)(O2)C(=O)C(=O)N2CCCC[C@H]2C(=O)O[C@H]([C@H](C)C[C@@H]2CC[C@@H](O)[C@H](OC)C2)CC(=O)[C@H](C)/C=C(\C)[C@@H](O)CC[C@H](C)/C=C/C=C/C=C/1C [Compound 7]	101.4% and 96.8%	92.3% and 102.8%	98.3% and 99.4%	96.8% and 109.7%	108.1% and 104.4%	100.3% and 100.8%	94.5% and 97.8%	91.0% and 94.3%	98.4% and 90.4%	79.8% and 78.8%	64.4% and 67.9%	41.4% and 44.6%	37.3% and 37.7%	29.3% and 29.8%	28.3%	25.8% and 24.4%	23.0% and 23.1%	10.5% and 12.1%	0.565% and 1.0%	100	Jurkat viability (%) (T lymphoma Jurkat cells; conc 50 uM): 0.186% and 0.257%; viability at 72 h, 0.000190735 uM [1]: 95.1%; viability at 72 h, 0.00038147 uM [1]: 102%; viability at 72 h, 0.000762939 uM [1]: 100%; viability at 72 h, 0.00152588 uM [1]: 105%; viability at 72 h, 0.00305176 uM [1]: 93.5%; viability at 72 h, 0.00610352 uM [1]: 96.7%; viability at 72 h, 0.012207 uM [1]: 90.6%; viability at 72 h, 0.0244141 uM [1]: 98.9%; viability at 72 h, 0.0488281 uM [1]: 87%; viability at 72 h, 0.0976562 uM [1]: 67%; viability at 72 h, 0.195312 uM [1]: 46.3%; viability at 72 h, 0.390625 uM [1]: 36%; viability at 72 h, 0.78125 uM [1]: 31%; viability at 72 h, 1.5625 uM [1]: 26.7%; viability at 72 h, 3.125 uM [1]: 24.2%; viability at 72 h, 6.25 uM [1]: 24.1%; viability at 72 h, 12.5 uM [1]: 10.9%; viability at 72 h, 25 uM [1]: 0.741%; viability at 72 h, 50 uM [1]: 0.258%
